Key:
ROCK-II = ROCK-II (Homo sapiens, UniProt O75116); experiment: ROCK-II biochemical counter-screen; settings: read-out: ROCK-II IC50
ABL1 = biological target: T1, ABL1 (Homo sapiens, UniProt P00519); experiment: Kinase profiling at 1 μM (Reaction Biology); type: biochemical; settings: ATP 10 μM
T1 construct: purchased Reaction Biology Corporation
Procedure: (§1) Profiling was carried out at Reaction Biology Corporation following a protocol described at its website: http://www.reactionbiology.com/webapps/site/. The % data were the average from two determinations. ATP concentration used: 10 μM; Staurosporine was used as the positive control.
(§2) Biochemical assays for all Limk inhibitors and kinase profiling were carried out in Reaction Biology Corporation and followed the protocols described on its website. […] Compounds were tested at 1 μM with duplicate experiments in profiling assays. […] Reactions were carried out at 10 μM ATP, 1 μM substrate cofilin, and 50 nM Limk1 (final concentrations).

AMPK(A1/B1/G1) = biological target: T2, AMPK(A1/B1/G1) (Homo sapiens, UniProt Q13131); experiment: Kinase profiling at 1 μM (Reaction Biology); type: biochemical; settings: ATP 10 μM
T2 construct: purchased Reaction Biology Corporation
Procedure: as §1, §2

Aurora A = biological target: T3, Aurora A (Homo sapiens, UniProt O14965); experiment: Kinase profiling at 1 μM (Reaction Biology); type: biochemical; settings: ATP 10 μM
T3 construct: purchased Reaction Biology Corporation
T3 sequence (O14965 whole entry): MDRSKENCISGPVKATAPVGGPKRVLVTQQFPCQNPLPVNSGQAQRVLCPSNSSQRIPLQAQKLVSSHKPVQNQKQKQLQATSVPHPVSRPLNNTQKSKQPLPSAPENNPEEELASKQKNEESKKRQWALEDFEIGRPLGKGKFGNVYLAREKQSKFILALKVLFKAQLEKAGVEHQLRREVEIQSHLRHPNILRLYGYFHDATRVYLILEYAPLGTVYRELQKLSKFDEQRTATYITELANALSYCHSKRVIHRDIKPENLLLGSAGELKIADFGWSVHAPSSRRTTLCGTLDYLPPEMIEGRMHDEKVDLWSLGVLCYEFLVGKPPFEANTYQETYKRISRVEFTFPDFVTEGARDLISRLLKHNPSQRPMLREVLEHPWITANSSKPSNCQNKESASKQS
Procedure: as §1, §2

BTK = biological target: T4, BTK (Homo sapiens, UniProt Q06187); experiment: Kinase profiling at 1 μM (Reaction Biology); type: biochemical; settings: ATP 10 μM
T4 construct: purchased Reaction Biology Corporation
Procedure: as §1, §2

CAMK2b = biological target: T5, CAMK2b (Homo sapiens, UniProt Q13554); experiment: Kinase profiling at 1 μM (Reaction Biology); type: biochemical; settings: ATP 10 μM
T5 construct: purchased Reaction Biology Corporation
Procedure: as §1, §2

CDK5/p35 = biological target: T6, CDK5/p35 (Homo sapiens, UniProt Q00535); experiment: Kinase profiling at 1 μM (Reaction Biology); type: biochemical; settings: ATP 10 μM
T6 construct: purchased Reaction Biology Corporation
Procedure: as §1, §2

CK1d = biological target: T7, CK1d (Homo sapiens, UniProt P48730); experiment: Kinase profiling at 1 μM (Reaction Biology); type: biochemical; settings: ATP 10 μM
T7 construct: purchased Reaction Biology Corporation
Procedure: as §1, §2

CK2a = biological target: T8, CK2a (Homo sapiens, UniProt P68400); experiment: Kinase profiling at 1 μM (Reaction Biology); type: biochemical; settings: ATP 10 μM
T8 construct: purchased Reaction Biology Corporation
Procedure: as §1, §2

DAPK1 = biological target: T9, DAPK1 (Homo sapiens, UniProt P53355); experiment: Kinase profiling at 1 μM (Reaction Biology); type: biochemical; settings: ATP 10 μM
T9 construct: purchased Reaction Biology Corporation
Procedure: as §1, §2

EGFR = biological target: T10, EGFR (Homo sapiens, UniProt P00533); experiment: Kinase profiling at 1 μM (Reaction Biology); type: biochemical; settings: ATP 10 μM
T10 construct: purchased Reaction Biology Corporation
T10 sequence (P00533 25-1210): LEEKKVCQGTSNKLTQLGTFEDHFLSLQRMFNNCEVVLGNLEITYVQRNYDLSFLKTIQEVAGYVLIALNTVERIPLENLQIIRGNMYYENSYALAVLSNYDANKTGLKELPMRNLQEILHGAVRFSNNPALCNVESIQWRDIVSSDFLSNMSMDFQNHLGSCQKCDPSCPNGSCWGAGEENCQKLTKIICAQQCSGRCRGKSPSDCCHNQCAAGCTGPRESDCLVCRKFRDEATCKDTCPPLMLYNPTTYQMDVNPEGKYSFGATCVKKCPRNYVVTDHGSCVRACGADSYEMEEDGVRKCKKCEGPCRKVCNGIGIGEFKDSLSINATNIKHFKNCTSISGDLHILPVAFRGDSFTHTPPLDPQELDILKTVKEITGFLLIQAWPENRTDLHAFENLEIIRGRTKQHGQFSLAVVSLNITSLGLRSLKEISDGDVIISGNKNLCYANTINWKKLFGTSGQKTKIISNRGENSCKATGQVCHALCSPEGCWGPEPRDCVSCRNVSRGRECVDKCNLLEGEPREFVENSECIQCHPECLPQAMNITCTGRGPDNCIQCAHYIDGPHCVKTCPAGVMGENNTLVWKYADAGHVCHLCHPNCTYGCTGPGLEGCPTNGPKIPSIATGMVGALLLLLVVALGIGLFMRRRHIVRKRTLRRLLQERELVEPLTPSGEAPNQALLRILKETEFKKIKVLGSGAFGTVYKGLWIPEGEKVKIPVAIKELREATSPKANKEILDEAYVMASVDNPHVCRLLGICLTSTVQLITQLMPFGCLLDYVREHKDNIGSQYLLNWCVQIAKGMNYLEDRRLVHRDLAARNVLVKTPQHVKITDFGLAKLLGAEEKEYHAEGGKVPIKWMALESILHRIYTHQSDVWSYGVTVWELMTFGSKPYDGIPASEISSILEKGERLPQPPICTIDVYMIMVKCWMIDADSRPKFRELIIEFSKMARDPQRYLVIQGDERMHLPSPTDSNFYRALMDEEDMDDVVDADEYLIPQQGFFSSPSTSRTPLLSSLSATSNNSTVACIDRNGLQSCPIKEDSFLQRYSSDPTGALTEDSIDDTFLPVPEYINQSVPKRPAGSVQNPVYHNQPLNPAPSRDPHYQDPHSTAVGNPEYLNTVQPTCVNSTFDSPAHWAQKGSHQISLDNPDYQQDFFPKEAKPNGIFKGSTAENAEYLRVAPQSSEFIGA
Procedure: as §1, §2

FAK/PTK2 = biological target: T11, FAK/PTK2 (Homo sapiens, UniProt Q05397); experiment: Kinase profiling at 1 μM (Reaction Biology); type: biochemical; settings: ATP 10 μM
T11 construct: purchased Reaction Biology Corporation
Procedure: as §1, §2

FGFR1 = biological target: T12, FGFR1 (Homo sapiens, UniProt P11362); experiment: Kinase profiling at 1 μM (Reaction Biology); type: biochemical; settings: ATP 10 μM
T12 construct: purchased Reaction Biology Corporation
Procedure: as §1, §2

FLT3 = biological target: T13, FLT3 (Homo sapiens, UniProt P36888); experiment: Kinase profiling at 1 μM (Reaction Biology); type: biochemical; settings: ATP 10 μM
T13 construct: purchased Reaction Biology Corporation
Procedure: as §1, §2

IGFIR = biological target: T14, IGFIR (Homo sapiens, UniProt P08069); experiment: Kinase profiling at 1 μM (Reaction Biology); type: biochemical; settings: ATP 10 μM
T14 construct: purchased Reaction Biology Corporation
Procedure: as §1, §2

IKKb/IKBKB = biological target: T15, IKKb/IKBKB (Homo sapiens, UniProt O14920); experiment: Kinase profiling at 1 μM (Reaction Biology); type: biochemical; settings: ATP 10 μM
T15 construct: purchased Reaction Biology Corporation
Procedure: as §1, §2

IKKe/IKBKE = biological target: T16, IKKe/IKBKE (Homo sapiens, UniProt Q14164); experiment: Kinase profiling at 1 μM (Reaction Biology); type: biochemical; settings: ATP 10 μM
T16 construct: purchased Reaction Biology Corporation
Procedure: as §1, §2

JNK3 = JNK3 (Homo sapiens, UniProt P53779); experiment: Kinase profiling at 1 μM (Reaction Biology); type: biochemical; settings: ATP 10 μM
Procedure: as §1, §2

KDR/VEGFR2 = biological target: T17, KDR/VEGFR2 (Homo sapiens, UniProt P35968); experiment: Kinase profiling at 1 μM (Reaction Biology); type: biochemical; settings: ATP 10 μM
T17 construct: purchased Reaction Biology Corporation
Procedure: as §1, §2

MEK1 = biological target: T18, MEK1 (Homo sapiens, UniProt Q02750); experiment: Kinase profiling at 1 μM (Reaction Biology); type: biochemical; settings: ATP 10 μM
T18 construct: purchased Reaction Biology Corporation
T18 sequence (Q02750 whole entry): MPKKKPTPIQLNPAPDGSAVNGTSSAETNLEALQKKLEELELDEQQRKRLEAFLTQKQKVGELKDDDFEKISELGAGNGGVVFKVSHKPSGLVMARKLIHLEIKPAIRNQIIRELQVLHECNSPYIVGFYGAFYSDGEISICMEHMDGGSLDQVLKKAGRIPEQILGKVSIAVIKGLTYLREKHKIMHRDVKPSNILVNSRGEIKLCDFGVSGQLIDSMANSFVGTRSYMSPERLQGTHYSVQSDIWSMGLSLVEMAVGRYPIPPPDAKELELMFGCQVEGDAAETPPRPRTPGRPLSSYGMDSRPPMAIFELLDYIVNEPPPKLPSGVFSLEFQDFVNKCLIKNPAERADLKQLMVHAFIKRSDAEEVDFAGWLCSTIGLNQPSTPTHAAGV
Procedure: as §1, §2

MRCKa/CDC42BPA = biological target: T19, MRCKa/CDC42BPA (Homo sapiens, UniProt Q5VT25); experiment: Kinase profiling at 1 μM (Reaction Biology); type: biochemical; settings: ATP 10 μM
T19 construct: purchased Reaction Biology Corporation
T19 sequence (Q5VT25 whole entry): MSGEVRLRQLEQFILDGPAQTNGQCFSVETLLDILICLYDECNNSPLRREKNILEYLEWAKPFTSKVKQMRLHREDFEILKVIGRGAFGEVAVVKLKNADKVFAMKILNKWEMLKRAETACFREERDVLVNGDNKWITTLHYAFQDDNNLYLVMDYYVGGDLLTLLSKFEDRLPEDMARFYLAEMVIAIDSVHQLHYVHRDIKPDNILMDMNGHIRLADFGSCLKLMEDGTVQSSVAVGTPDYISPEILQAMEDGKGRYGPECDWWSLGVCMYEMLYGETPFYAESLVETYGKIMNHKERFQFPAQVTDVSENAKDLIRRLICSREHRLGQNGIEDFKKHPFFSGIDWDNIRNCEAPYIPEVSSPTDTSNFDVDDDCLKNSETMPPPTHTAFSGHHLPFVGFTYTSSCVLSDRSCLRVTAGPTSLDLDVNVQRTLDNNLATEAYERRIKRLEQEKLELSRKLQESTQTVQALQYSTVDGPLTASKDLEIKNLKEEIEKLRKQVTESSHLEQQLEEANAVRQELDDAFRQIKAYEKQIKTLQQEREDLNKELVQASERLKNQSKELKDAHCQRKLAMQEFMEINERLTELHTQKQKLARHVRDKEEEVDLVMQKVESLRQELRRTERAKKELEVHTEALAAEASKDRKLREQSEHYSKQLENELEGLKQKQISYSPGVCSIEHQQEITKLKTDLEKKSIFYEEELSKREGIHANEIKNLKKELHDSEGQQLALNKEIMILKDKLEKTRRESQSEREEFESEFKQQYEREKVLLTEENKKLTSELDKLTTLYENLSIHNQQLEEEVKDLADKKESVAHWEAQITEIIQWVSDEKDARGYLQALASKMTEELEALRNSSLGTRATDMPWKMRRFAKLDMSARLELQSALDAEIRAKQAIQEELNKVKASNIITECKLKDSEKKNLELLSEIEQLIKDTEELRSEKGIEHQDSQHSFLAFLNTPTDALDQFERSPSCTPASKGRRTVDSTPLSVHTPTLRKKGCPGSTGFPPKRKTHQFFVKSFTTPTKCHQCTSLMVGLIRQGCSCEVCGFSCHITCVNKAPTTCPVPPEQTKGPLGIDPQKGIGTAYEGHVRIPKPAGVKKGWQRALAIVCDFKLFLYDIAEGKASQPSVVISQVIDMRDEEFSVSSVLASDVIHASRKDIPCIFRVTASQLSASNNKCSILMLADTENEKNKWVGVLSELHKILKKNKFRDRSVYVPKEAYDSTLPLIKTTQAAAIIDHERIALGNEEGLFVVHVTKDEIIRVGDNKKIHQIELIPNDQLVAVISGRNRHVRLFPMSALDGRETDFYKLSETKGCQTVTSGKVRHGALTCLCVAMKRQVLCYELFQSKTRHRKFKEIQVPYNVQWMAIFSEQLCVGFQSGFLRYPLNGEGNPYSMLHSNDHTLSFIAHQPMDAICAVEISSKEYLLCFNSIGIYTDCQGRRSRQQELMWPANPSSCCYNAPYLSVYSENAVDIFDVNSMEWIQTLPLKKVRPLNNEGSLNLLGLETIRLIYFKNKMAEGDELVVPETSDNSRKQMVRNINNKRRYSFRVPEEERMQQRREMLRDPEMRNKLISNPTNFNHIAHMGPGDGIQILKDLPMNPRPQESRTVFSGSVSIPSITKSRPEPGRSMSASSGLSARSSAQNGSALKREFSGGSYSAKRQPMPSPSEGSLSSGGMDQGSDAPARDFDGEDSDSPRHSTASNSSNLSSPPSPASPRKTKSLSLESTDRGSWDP
Procedure: as §1, §2

NEK1 = biological target: T20, NEK1 (Homo sapiens, UniProt Q96PY6); experiment: Kinase profiling at 1 μM (Reaction Biology); type: biochemical; settings: ATP 10 μM
T20 construct: purchased Reaction Biology Corporation
Procedure: as §1, §2

P38a/MAPK14 = biological target: T21, P38a/MAPK14 (Homo sapiens, UniProt Q16539); experiment: Kinase profiling at 1 μM (Reaction Biology); type: biochemical; settings: ATP 10 μM
T21 construct: purchased Reaction Biology Corporation
T21 sequence (Q16539 whole entry): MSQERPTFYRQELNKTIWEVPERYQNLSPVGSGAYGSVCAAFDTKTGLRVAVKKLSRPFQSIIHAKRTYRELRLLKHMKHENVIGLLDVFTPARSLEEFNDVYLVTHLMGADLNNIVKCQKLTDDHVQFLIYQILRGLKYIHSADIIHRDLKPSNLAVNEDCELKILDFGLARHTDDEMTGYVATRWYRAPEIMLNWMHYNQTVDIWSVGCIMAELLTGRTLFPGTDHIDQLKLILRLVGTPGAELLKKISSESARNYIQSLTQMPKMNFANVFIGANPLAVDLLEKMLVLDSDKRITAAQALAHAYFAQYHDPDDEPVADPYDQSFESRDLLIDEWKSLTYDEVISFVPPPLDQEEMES
Procedure: as §1, §2

PAK2 = biological target: T22, PAK2 (Homo sapiens, UniProt Q13177); experiment: Kinase profiling at 1 μM (Reaction Biology); type: biochemical; settings: ATP 10 μM
T22 construct: purchased Reaction Biology Corporation
Procedure: as §1, §2

PDGFRb = biological target: T23, PDGFRb (Homo sapiens, UniProt P09619); experiment: Kinase profiling at 1 μM (Reaction Biology); type: biochemical; settings: ATP 10 μM
T23 construct: purchased Reaction Biology Corporation
Procedure: as §1, §2

PKCa = biological target: T24, PKCa (Homo sapiens, UniProt P17252); experiment: Kinase profiling at 1 μM (Reaction Biology); type: biochemical; settings: ATP 10 μM
T24 construct: purchased Reaction Biology Corporation
Procedure: as §1, §2

PKN1/PRK1 = biological target: T25, PKN1/PRK1 (Homo sapiens, UniProt Q16512); experiment: Kinase profiling at 1 μM (Reaction Biology); type: biochemical; settings: ATP 10 μM
T25 construct: purchased Reaction Biology Corporation
Procedure: as §1, §2

PLK2 = biological target: T26, PLK2 (Homo sapiens, UniProt Q9NYY3); experiment: Kinase profiling at 1 μM (Reaction Biology); type: biochemical; settings: ATP 10 μM
T26 construct: purchased Reaction Biology Corporation
T26 sequence (Q9NYY3 whole entry): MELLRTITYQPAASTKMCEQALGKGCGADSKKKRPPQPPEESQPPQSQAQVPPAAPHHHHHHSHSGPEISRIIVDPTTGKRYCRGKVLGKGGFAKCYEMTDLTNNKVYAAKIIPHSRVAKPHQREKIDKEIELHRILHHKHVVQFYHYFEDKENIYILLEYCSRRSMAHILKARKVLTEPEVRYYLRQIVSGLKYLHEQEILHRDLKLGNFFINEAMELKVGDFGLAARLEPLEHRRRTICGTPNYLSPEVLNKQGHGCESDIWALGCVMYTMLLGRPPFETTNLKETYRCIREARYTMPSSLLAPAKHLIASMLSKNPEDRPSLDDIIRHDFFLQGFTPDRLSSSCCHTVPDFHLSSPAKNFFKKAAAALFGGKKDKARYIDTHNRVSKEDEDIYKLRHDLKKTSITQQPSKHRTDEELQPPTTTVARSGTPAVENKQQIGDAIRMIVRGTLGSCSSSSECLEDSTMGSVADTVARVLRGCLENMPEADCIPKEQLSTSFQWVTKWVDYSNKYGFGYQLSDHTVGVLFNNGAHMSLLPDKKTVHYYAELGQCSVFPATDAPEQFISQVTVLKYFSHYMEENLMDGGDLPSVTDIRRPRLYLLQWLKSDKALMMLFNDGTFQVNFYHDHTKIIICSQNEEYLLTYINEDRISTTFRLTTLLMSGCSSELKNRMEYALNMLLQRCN
Procedure: as §1, §2

RET = biological target: T27, RET (Homo sapiens, UniProt P07949); experiment: Kinase profiling at 1 μM (Reaction Biology); type: biochemical; settings: ATP 10 μM
T27 construct: purchased Reaction Biology Corporation
Procedure: as §1, §2

ROCK1 = biological target: T28, ROCK1 (Homo sapiens, UniProt Q13464); experiment: Kinase profiling at 1 μM (Reaction Biology); type: biochemical; settings: ATP 10 μM
T28 construct: purchased Reaction Biology Corporation
Procedure: as §1, §2

ROCK2 = biological target: T29, ROCK2 (Homo sapiens, UniProt O75116); experiment: Kinase profiling at 1 μM (Reaction Biology); type: biochemical; settings: ATP 10 μM
T29 construct: purchased Reaction Biology Corporation
Procedure: as §1, §2

SGK1 = biological target: T30, SGK1 (Homo sapiens, UniProt O00141); experiment: Kinase profiling at 1 μM (Reaction Biology); type: biochemical; settings: ATP 10 μM
T30 construct: purchased Reaction Biology Corporation
Procedure: as §1, §2

TAK1 = biological target: T31, TAK1 (Homo sapiens, UniProt O43318); experiment: Kinase profiling at 1 μM (Reaction Biology); type: biochemical; settings: ATP 10 μM
T31 construct: purchased Reaction Biology Corporation
T31 sequence (O43318 1-303 limits assumed): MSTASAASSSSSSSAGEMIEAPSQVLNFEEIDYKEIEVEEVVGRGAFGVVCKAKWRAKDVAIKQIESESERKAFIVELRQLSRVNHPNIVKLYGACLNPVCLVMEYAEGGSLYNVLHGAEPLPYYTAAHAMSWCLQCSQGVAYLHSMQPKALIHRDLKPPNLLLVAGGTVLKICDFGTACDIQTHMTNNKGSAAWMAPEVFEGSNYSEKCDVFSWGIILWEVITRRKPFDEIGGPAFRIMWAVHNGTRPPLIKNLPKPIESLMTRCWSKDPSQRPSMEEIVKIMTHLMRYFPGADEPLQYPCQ
Procedure: as §1, §2

TAOK1 = biological target: T32, TAOK1 (Homo sapiens, UniProt Q7L7X3); experiment: Kinase profiling at 1 μM (Reaction Biology); type: biochemical; settings: ATP 10 μM
T32 construct: purchased Reaction Biology Corporation
Procedure: as §1, §2

TBK1 = biological target: T33, TBK1 (Homo sapiens, UniProt Q9UHD2); experiment: Kinase profiling at 1 μM (Reaction Biology); type: biochemical; settings: ATP 10 μM
T33 construct: purchased Reaction Biology Corporation
Procedure: as §1, §2

WEE1 = biological target: T34, WEE1 (Homo sapiens, UniProt P30291); experiment: Kinase profiling at 1 μM (Reaction Biology); type: biochemical; settings: ATP 10 μM
T34 construct: purchased Reaction Biology Corporation
Procedure: as §1, §2

c-Kit = biological target: T35, c-Kit (Homo sapiens, UniProt P10721); experiment: Kinase profiling at 1 μM (Reaction Biology); type: biochemical; settings: ATP 10 μM
T35 construct: purchased Reaction Biology Corporation
Procedure: as §1, §2

mTOR/FRAP1 = biological target: T36, mTOR/FRAP1 (Homo sapiens, UniProt P42345); experiment: Kinase profiling at 1 μM (Reaction Biology); type: biochemical; settings: ATP 10 μM
T36 construct: purchased Reaction Biology Corporation
Procedure: as §1, §2

## Cc1c[nH]c2ncnc(-c3ccc(NC(=O)N(CCO)c4ccccc4)cc3)c12 [Compound 18b, 1-(2-Hydroxyethyl)-3-(4-(5-methyl-7H-pyrrolo[2,3-d]pyrimidin-4-yl)phenyl)-1-phenylurea]
ROCK-II
  IC50: 6.57 µM

## COC(=O)c1ccc2[nH]c(C3CCN(c4ncnc5[nH]cc(Cl)c45)CC3)nc2c1 [Compound R10015, Methyl 2-(1-(5-chloro-7H-pyrrolo[2,3-d]pyrimidin-4-yl)piperidin-4-yl)-1Hbenzo[d]imidazole-5-carboxylate]
ABL1
  activity at 1 µM: 89.2%
AMPK(A1/B1/G1)
  activity at 1 µM: 76.6%
Aurora A
  activity at 1 µM: 60.3%
BTK
  activity at 1 µM: 90.2%
CAMK2b
  activity at 1 µM: 90.8%
CDK5/p35
  activity at 1 µM: 85.5%
CK1d
  activity at 1 µM: 85%
CK2a
  activity at 1 µM: 94.2%
DAPK1
  activity at 1 µM: 87.8%
EGFR
  activity at 1 µM: 93.2%
FAK/PTK2
  activity at 1 µM: 81.5%
FGFR1
  activity at 1 µM: 86.5%
FLT3
  activity at 1 µM: 32.2%
IGFIR
  activity at 1 µM: 90%
IKKb/IKBKB
  activity at 1 µM: 85.1%
IKKe/IKBKE
  activity at 1 µM: 84.1%
JNK3
  activity at 1 µM: 85.7%
KDR/VEGFR2
  activity at 1 µM: 87.2%
MEK1
  activity at 1 µM: 75.6%
MRCKa/CDC42BPA
  activity at 1 µM: 96.5%
NEK1
  activity at 1 µM: 67.2%
P38a/MAPK14
  activity at 1 µM: 98.6%
PAK2
  activity at 1 µM: 98.2%
PDGFRb
  activity at 1 µM: 78.6%
PKCa
  activity at 1 µM: 47.5%
PKN1/PRK1
  activity at 1 µM: 58.6%
PLK2
  activity at 1 µM: 103%
RET
  activity at 1 µM: 46.5%
ROCK1
  activity at 1 µM: 42.3%
ROCK2
  activity at 1 µM: 29.5%
SGK1
  activity at 1 µM: 61%
TAK1
  activity at 1 µM: 82.4%
TAOK1
  activity at 1 µM: 54%
TBK1
  activity at 1 µM: 82%
WEE1
  activity at 1 µM: 97.2%
c-Kit
  activity at 1 µM: 81.3%
mTOR/FRAP1
  activity at 1 µM: 100%

Source: US20190292189A1, “LIM KINASE INHIBITORS” (VIRONGY, LLC, priority 2016, published 2019)
